≈ marks a conversion by molar mass, not a printed value.
Assays:
Assay in all cases: In vitro antibacterial evaluation: minimum inhibitory concentration (MIC), broth dilution method
Format in all cases: cell-based
Enterococcus sp. = tested on: Enterococcus sp.
Procedure: (§1) The minimum inhibitory concentration (MIC), the lowest concentration of the antibiotic which inhibits growth of the test organism, is determined by the broth dilution method using Muller-Hinton II […] (Baltimore Biological Laboratories) following the recommendations of the National Committee for Clinical Laboratory Standards [Methods for dilution antimicrobial susceptibility tests for bacteria that grow aerobically, approved standard M7-A2, National Committee for Clinical Laboratory Standards, Villanova, Pa].
(§2) An inoculum level of 5×10^5 CFU/mL, and a range of antibiotic concentrations (64-0.06 μg/mL) is used. […] The test organisms include a spectrum of Gram-positive bacteria comprised of Staphylococcus sp., Streptococcus sp. and Enterococcus sp. These organisms include recent clinical isolates that are resistant to methicillin, penicillin and/or vancomycin.

Escherichia coli = tested on: Escherichia coli
Procedure: as §1, §2

Staphylococcus sp. = conditions: broth dilution, 18 hours at 35° C.
Procedure: as §1, §2

Streptococcus sp. = tested on: Streptococcus sp.
Procedure: as §1, §2

- MIC Enterococcus faecalis (ATCC 29212) (Enterococcus sp.; strain ATCC 29212): <0.5 µg/mL
- MIC Enterococcus faecalis (GC 2242) (Enterococcus sp.; strain GC 2242): <1 µg/mL
- MIC Enterococcus faecium (GC 2243) (Enterococcus sp.; strain GC 2243): 1 µg/mL (≈ 0.702 µM)
- MIC Enterococcus faecalis (GC 2691) (Enterococcus sp.; strain GC 2691): 1 µg/mL (≈ 0.702 µM)
- MIC Enterococcus faecalis (GC 3059) (Enterococcus sp.; strain GC 3059): 1 µg/mL (≈ 0.702 µM)
- MIC Enterococcus faecalis (GC 4552) (Enterococcus sp.; strain GC 4552): 1 µg/mL (≈ 0.702 µM)
- MIC Enterococcus faecalis (GC 4553) (Enterococcus sp.; strain GC 4553): 1 µg/mL (≈ 0.702 µM)
- MIC Enterococcus faecalis (GC 4554) (Enterococcus sp.; strain GC 4554): 1 µg/mL (≈ 0.702 µM)
- MIC Enterococcus faecium (GC 4556) (Enterococcus sp.; strain GC 4556): 1 µg/mL (≈ 0.702 µM)
- MIC Enterococcus faecium (GC 4557) (Enterococcus sp.; strain GC 4557): 1 µg/mL (≈ 0.702 µM)
- MIC Enterococcus avium (GC 4558) (Enterococcus sp.; strain GC 4558): 1 µg/mL (≈ 0.702 µM)
- MIC Enterococcus faecalis (GC 6189) (Enterococcus sp.; strain GC 6189): 1 µg/mL (≈ 0.702 µM)
- MIC Escherichia coli (ATCC 25922) (Escherichia coli; strain ATCC 25922): 64 µg/mL (≈ 44.9 µM)
- MIC Escherichia coli (GC 4559) (Escherichia coli; strain GC 4559): 64 µg/mL (≈ 44.9 µM)
- MIC Escherichi coli (GC 4560) (Escherichia coli; strain GC 4560): 1 µg/mL (≈ 0.702 µM)
- MIC Coagulase Negative Staphylococcus (GC 4547) (Staphylococcus sp.; 5×10^5 CFU/mL): <0.5 µg/mL
- MIC Coagulase Negative Staphylococcus (GC 4548) (Staphylococcus sp.; 5×10^5 CFU/mL): <0.5 µg/mL
- MIC Coagulase Negative Staphylococcus (GC 4549) (Staphylococcus sp.; 5×10^5 CFU/mL): <0.5 µg/mL
- MIC Coagulase Negative Staphylococcus (GC 4551) (Staphylococcus sp.; 5×10^5 CFU/mL): <0.5 µg/mL
- MIC Coagulase Negative Staphylococcus (GC 6257) (Staphylococcus sp.; 5×10^5 CFU/mL): <0.5 µg/mL
- MIC Staphylococcus aureus (ATCC 29213) (Staphylococcus sp.; 5×10^5 CFU/mL): 1 µg/mL (≈ 0.702 µM)
- MIC Staphylococcus aureus (GC 1131) (Staphylococcus sp.; 5×10^5 CFU/mL): 1 µg/mL (≈ 0.702 µM)
- MIC Staphylococcus aureus (GC 3051) (Staphylococcus sp.; 5×10^5 CFU/mL): 1 µg/mL (≈ 0.702 µM)
- MIC Staphylococcus aureus (GC 3053) (Staphylococcus sp.; 5×10^5 CFU/mL): <0.5 µg/mL
- MIC Staphylococcus aureus (GC 4541) (Staphylococcus sp.; 5×10^5 CFU/mL): 1 µg/mL (≈ 0.702 µM)
- MIC Staphylococcus aureus (GC 4542) (Staphylococcus sp.; 5×10^5 CFU/mL): 1 µg/mL (≈ 0.702 µM)
- MIC Staphylococcus aureus (GC 4544) (Staphylococcus sp.; 5×10^5 CFU/mL): 1 µg/mL (≈ 0.702 µM)
- MIC Staphylococcus aureus (GC 4545) (Staphylococcus sp.; 5×10^5 CFU/mL): <0.5 µg/mL
- MIC Staphylococcus aureus-SMITH (GC 4543) (Staphylococcus sp.; 5×10^5 CFU/mL): 1 µg/mL (≈ 0.702 µM)
- MIC Staphylococcus aureus (ATCC 29213) (Staphylococcus sp.; strain ATCC 29213): 1 µg/mL (≈ 0.702 µM)
- MIC Staphylococcus aureus (GC 1131) (Staphylococcus sp.; strain GC 1131): 1 µg/mL (≈ 0.702 µM)
- MIC Staphylococcus aureus (GC 3051) (Staphylococcus sp.; strain GC 3051): 1 µg/mL (≈ 0.702 µM)
- MIC Staphylococcus aureus (GC 3053) (Staphylococcus sp.; strain GC 3053): <0.5 µg/mL
- MIC Staphylococcus aureus (GC 4541) (Staphylococcus sp.; strain GC 4541): 1 µg/mL (≈ 0.702 µM)
- MIC Staphylococcus aureus (GC 4542) (Staphylococcus sp.; strain GC 4542): 1 µg/mL (≈ 0.702 µM)
- MIC Staphylococcus aureus-SMITH (GC 4543) (Staphylococcus sp.; strain GC 4543): 1 µg/mL (≈ 0.702 µM)
- MIC Staphylococcus aureus (GC 4544) (Staphylococcus sp.; strain GC 4544): 1 µg/mL (≈ 0.702 µM)
- MIC Staphylococcus aureus (GC 4545) (Staphylococcus sp.; strain GC 4545): <0.5 µg/mL
- MIC Coagulase Negative Staphylococcus (GC 4547) (Staphylococcus sp.; strain GC 4547): <0.5 µg/mL
- MIC Coagulase Negative Staphylococcus (GC 4548) (Staphylococcus sp.; strain GC 4548): <0.5 µg/mL
- MIC Coagulase Negative Staphylococcus (GC 4549) (Staphylococcus sp.; strain GC 4549): <0.5 µg/mL
- MIC Coagulase Negative Staphylococcus (GC 4551) (Staphylococcus sp.; strain GC 4551): <0.5 µg/mL
- MIC Coagulase Negative Staphylococcus (GC 6257) (Staphylococcus sp.; strain GC 6257): <0.5 µg/mL
- MIC Streptococcus pneumoniae (ATCC 6301) (Streptococcus sp.; strain ATCC 6301): <0.5 µg/mL
- MIC Streptococcus pneumoniae (GC 1894) (Streptococcus sp.; strain GC 1894): <0.5 µg/mL
- MIC Streptococcus pyogenes (GC 4563) (Streptococcus sp.; strain GC 4563): <0.5 µg/mL
- MIC Streptococcus agalactiae (GC 4564) (Streptococcus sp.; strain GC 4564): <0.5 µg/mL
- MIC Streptococcus pneumoniae (GC 4565) (Streptococcus sp.; strain GC 4565): <0.5 µg/mL
Structure (SMILES): CCCc1ccc(C2OCC3OC(OC4C(CO)OC(Oc5ccc(CC6NC(=O)C(C(C)c7ccccc7)NC(=O)CNC(=O)C(CO)NC(=O)C(C(O)C7CNC(=N)N7C7OC(CO)C(O)C(O)C7O)NC(=O)C(C(O)C7CNC(=N)N7)NC6=O)cc5)C(O)C4O)C(O)C(O)C3O2)cc1 (stereo not drawn) [Example 140, Cyclo[glycyl-β-methylphenylalanyl-O-[4-O-[4,6-O-(4-propylbenzylidene)hexopyranosyl]-hexopyranosyl]tyrosyl-3-(2-iminoimidazolidin-4-yl)seryl-3-(3-hexopyranosyl-2-iminoimidazolidin-4-yl)serylseryl]]
- MIC Staphylococcus haemolyticus (GC 4546) (Staphylococcus sp.; 5×10^5 CFU/mL): 1 µg/mL (≈ 0.702 µM)
- MIC Staphylococcus haemolyticus (GC 4546) (Staphylococcus sp.; strain GC 4546): 1 µg/mL (≈ 0.702 µM)

From patent US8247211B2, “Glycopeptide antibiotics” (American Cyanamid Company, priority 2001, dated 2012)
